Here are results for one compound from patent publication US20120121705A1, “Pharmaceutical Or Cosmetic Or Dietetic Composition Suitable For Promoting A Hair Pigmentation Effect” (priority 2009, published 2012).

The test deals with hair follicle pigmentation unit. In words: Hair pigmentation: quantitative Masson-Fontana melanin staining in organ-cultured human scalp skin / hair follicles. It is filed as cell-based. The settings on record: spermidine 3HCl 0.1 μM, given at each medium change (every 48 hours), 6 days organ culture; compared with vehicle; FIG. 1 and FIG. 2. As to the method:
The skin of normal human scalp was taken from a person who had undergone a routine face lifting surgery after receiving the informed consent. All the experiments were carried out according to the Helsinki principles, with the ethical committee's approval.
The tissues subject to biopsy with 3-4 mm cylindrical scalpel were cultured at 37° C. for 6 days in Williams E medium (Biochrom, Cambridge, U.K.), integrated with 100 IU ml^−1 penicillin, 10 μg ml^−1 streptomycin (Gibco, Karlsruhe, Germany), 10 μg ml^−1 insulin (Sigma, Taukfirchen, Germany), 10 ng ml^−1 hydrocortisone (Sigma) and 2 mmol L^−1 (L-glutamine (Invitrogen, Paisley, U.K.). […]
The Masson-Fontana staining was carried out for the histochemical display of melanin on frozen sections. Melanin was stained in the form of brown granules and the pigmentation level was determined through the quantitative Masson-Fontana technique (Ito N., Ito T., Kromminga A., Bettermann A., Takigawa M., Kees F., Straub R. H., and Paus R. (2005): Human hair follicles display a functional equivalent of the hypothalamic-pituitary-adrenal axis and synthesize cortisol. FASEB J 19, 1332-4). […]
The staining intensity was analyzed in a defined reference region of the hair follicle pigmentation unit using the ImageJ software (National Institute of Health). […]

Regarding `NCCCCNCCCN` [spermidine, N-(3-aminopropyl)butan-1,4-diamine], the “pigmentation intensity in hair follicles (melanin, Masson-Fontana staining)” value was “increase of melanin”.
